Target: T1, Mm HCP (Methanothermobacter marburgensis, UniProt D9PYV4)
T1 construct: full length with N-terminal rubredoxin domain (Met1-Arg52), C-terminal His6-tag, recombinant from E. coli C41(DE3) with pBBRISC, anaerobically purified; homodimer
T1 sequence (D9PYV4 1-491): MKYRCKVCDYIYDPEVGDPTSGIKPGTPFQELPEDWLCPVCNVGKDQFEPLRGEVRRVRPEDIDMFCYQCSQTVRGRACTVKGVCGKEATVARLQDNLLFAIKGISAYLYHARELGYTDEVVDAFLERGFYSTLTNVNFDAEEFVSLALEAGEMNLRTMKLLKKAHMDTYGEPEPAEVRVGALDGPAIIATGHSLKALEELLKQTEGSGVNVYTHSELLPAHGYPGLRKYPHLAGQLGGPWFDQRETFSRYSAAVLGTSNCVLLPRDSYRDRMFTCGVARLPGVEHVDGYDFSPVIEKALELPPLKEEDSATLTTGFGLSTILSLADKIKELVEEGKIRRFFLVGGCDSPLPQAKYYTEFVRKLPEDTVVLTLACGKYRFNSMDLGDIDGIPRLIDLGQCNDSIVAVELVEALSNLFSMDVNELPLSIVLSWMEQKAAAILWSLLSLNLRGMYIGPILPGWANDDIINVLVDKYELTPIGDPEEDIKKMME
Format: binding

[S]12[Fe]3[S]4[Fe]1[S]1[Fe]2[S]3[Fe]41 [[4Fe-4S] cluster]
X-ray crystal structure, 2.8 Å: The Fe ions, [4Fe-4S] cluster and hybrid cluster ([4Fe-2S-3O] cluster) are represented as spheres
